According to PubChem BioAssay (NCI):
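These data come from cells grown in 96-well plates and exposed to compound for 48 hours at five concentrations. TGI is the concentration that stops growth completely.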

Assays:
Assay in all cases: NCI-60 cell line screen, 48 h
MDA-N = tested on: MDA-N
MDA-MB-435 = tested on: MDA-MB-435
UO-31 renal = tested on: UO-31 renal
NCI/ADR-RES ovarian = tested on: NCI/ADR-RES ovarian
OVCAR-4 ovarian = tested on: OVCAR-4 ovarian
MCF7 breast = tested on: MCF7 breast
OVCAR-8 ovarian = tested on: OVCAR-8 ovarian
SN12C renal = tested on: SN12C renal
BT-549 breast = tested on: BT-549 breast
SK-MEL-5 melanoma = tested on: SK-MEL-5 melanoma
U251 CNS = tested on: U251 CNS
SK-MEL-2 melanoma = tested on: SK-MEL-2 melanoma
SNB-75 CNS = tested on: SNB-75 CNS
SK-MEL-28 melanoma = tested on: SK-MEL-28 melanoma
MDA-MB-231 breast = tested on: MDA-MB-231 breast
SF-539 CNS = tested on: SF-539 CNS
CCRF-CEM leukemia = tested on: CCRF-CEM leukemia

| Structure (SMILES) | TGI (MDA-N) [µM] | TGI (MDA-MB-435) [µM] | TGI (UO-31 renal) [µM] | TGI (NCI/ADR-RES ovarian) [µM] | TGI (OVCAR-4 ovarian) [µM] | TGI (MCF7 breast) [µM] | TGI (OVCAR-8 ovarian) [µM] | TGI (SN12C renal) [µM] | TGI (BT-549 breast) [µM] | TGI (SK-MEL-5 melanoma) [µM] | TGI (U251 CNS) [µM] | TGI (SK-MEL-2 melanoma) [µM] | TGI (SNB-75 CNS) [µM] | TGI (SK-MEL-28 melanoma) [µM] | TGI (MDA-MB-231 breast) [µM] | TGI (SF-539 CNS) [µM] | TGI (CCRF-CEM leukemia) [µM] |
| --- | --- | --- | --- | --- | --- | --- | --- | --- | --- | --- | --- | --- | --- | --- | --- | --- | --- |
| COc1ccc2c(c1)-c1[nH]c3ccc(OC)cc3c1CC2 | 30.2 | 40.2 | 31.4 | 24.8 | 29.4 | 89.7 | 27.3 | 29.3 | 32.9 | 30.9 | 39.2 | 28.4 | 26.9 | 32.4 | 35 | 33.7 | 80.6 |
| Cn1c(Cl)cn2c3nc4ccccc4nc3c(=O)c(C#N)c12 | > 100 | > 100 | > 100 | > 100 | > 100 | > 100 | > 100 | > 100 | > 100 | > 100 | > 100 | > 100 | > 81.5 | > 100 | > 100 | > 100 | > 100 |
| C=CCN1C(=O)/C(=C/c2ccc(C)cc2)NC1=S | > 100 | > 100 | > 100 | > 100 | > 100 | > 100 | > 100 | > 100 | > 100 | > 100 | > 100 | > 100 | > 100 | > 100 | > 100 | > 100 | > 100 |
| Nc1ncnc2c1ncn2C1OC(CO)C(O)C(O)C1O (configuration not stated) | > 100 | > 100 | > 100 | > 100 | > 100 | > 100 | > 100 | > 100 | > 100 | > 100 | > 100 | > 100 | > 100 | > 100 | > 100 | > 100 | > 100 |
| CC1(C)C/C(=N/O)c2c(nc3ccc4ccccc4c3c2-c2ccc(Cl)cc2)C1 | > 100 | > 100 | 43.5 | 39.3 | 30.4 | 24.1 | 25 | 22.7 | 30.9 | > 100 | 24 | > 100 | 35.7 | > 100 | 24.4 | 36.4 | 27.6 |
| CC1(c2cccc(Cl)c2)CC(c2cccc(Cl)c2)=C(C#N)C(=C(C#N)C#N)N1 (configuration not stated) | 39.7 | 35.3 | 29.3 | 48.1 | 32.6 | 51.6 | 42.6 | 36.4 | 51.2 | 28.6 | 37.8 | 64.8 | 34.3 | 74 | 48.6 | 37.2 | > 100 |
